Legend:
CYP2C8 [1] = target: T1, CYP2C8 (Homo sapiens, UniProt P10632); assay: Phase I enzyme determination in HLM with CYP-specific inhibitor quercetin; conditions: quercetin 10 μM
T1 sequence (P10632 1-490): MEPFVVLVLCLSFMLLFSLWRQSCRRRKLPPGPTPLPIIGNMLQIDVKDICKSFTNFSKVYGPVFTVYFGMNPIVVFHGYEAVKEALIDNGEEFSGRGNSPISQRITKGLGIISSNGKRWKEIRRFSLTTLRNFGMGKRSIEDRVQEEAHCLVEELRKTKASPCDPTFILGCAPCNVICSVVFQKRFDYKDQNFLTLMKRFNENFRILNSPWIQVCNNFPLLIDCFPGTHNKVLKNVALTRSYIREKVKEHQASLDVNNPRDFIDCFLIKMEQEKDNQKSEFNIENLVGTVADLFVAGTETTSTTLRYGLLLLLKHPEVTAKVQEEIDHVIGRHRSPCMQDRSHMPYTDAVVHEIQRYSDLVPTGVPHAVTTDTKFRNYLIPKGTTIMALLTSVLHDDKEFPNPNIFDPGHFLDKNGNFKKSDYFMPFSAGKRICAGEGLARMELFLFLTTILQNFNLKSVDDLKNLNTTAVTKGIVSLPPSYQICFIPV

CYP3A4/5 = assay: Phase I enzyme determination in HLM with CYP-specific inhibitor ketoconazole; assay type: in vitro ADME, human; conditions: HLM with six CYP-specific inhibitors
[2] = Metabolic stability study in HLM; assay type: in vitro ADME, human; conditions: for stability in the negative control assay: without HLM, NADPH regenerating system and UDPGA, up to 120 min, 37°C
CYP2B6 = target: T2, CYP2B6 (Homo sapiens, UniProt P20813); assay: Inhibitory DDI evaluation, cocktail incubation in HLM; assay type: in vitro ADME
T2 sequence (P20813 1-491): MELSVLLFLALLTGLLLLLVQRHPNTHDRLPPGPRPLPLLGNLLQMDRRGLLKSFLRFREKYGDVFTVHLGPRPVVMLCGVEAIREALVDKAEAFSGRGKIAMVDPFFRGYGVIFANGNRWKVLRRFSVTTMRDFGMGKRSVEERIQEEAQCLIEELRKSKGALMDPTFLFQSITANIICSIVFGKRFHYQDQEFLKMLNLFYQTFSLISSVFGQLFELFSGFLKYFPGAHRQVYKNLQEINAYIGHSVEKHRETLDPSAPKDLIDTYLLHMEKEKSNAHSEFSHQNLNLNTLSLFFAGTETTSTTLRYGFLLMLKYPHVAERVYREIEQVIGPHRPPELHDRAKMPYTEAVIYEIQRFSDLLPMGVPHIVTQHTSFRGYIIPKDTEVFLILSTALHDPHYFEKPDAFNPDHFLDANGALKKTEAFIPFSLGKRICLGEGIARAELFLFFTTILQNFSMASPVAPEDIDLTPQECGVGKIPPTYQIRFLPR

CYP2D6 = CYP2D6 (Homo sapiens, UniProt P10635); assay: as above; assay type: in vitro ADME
Chain of CYP2D6 (P10635 whole entry): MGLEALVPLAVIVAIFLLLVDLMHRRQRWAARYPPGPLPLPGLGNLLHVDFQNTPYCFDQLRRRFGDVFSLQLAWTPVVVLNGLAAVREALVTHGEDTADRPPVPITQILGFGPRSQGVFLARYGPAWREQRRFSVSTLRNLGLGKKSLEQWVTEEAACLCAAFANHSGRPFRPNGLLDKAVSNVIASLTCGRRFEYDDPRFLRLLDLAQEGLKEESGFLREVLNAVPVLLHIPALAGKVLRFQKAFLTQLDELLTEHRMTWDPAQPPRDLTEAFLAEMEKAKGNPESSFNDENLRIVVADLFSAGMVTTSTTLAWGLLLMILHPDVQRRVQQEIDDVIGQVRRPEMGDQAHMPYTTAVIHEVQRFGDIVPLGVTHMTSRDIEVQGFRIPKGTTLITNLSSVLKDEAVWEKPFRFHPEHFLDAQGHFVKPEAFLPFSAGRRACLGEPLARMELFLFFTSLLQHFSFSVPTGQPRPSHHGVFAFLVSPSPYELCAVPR

[3] = cited from earlier work
CYP2C9 = CYP2C9 (Homo sapiens, UniProt P11712); assay: Inhibitory DDI evaluation, cocktail incubation in HLM; assay type: in vitro ADME
Chain of CYP2C9 (P11712 whole entry): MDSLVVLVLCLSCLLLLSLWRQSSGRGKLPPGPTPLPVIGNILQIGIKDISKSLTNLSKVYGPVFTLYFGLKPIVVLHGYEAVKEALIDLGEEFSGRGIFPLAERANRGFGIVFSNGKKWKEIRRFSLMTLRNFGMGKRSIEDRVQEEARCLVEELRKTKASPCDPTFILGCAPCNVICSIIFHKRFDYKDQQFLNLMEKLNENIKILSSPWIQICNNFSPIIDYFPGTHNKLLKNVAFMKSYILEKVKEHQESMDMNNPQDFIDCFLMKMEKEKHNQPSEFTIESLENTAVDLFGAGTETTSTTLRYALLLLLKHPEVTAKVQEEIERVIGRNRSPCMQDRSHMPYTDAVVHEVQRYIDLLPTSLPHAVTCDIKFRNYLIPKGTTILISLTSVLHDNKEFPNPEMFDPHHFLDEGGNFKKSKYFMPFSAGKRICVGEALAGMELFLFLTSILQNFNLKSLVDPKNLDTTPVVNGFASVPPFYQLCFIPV

CYP2C8 [4] = target: T1, CYP2C8; assay: as above; assay type: in vitro ADME
CYP1A2 = target: T3, CYP1A2 (Homo sapiens, UniProt P05177); assay: as above; assay type: in vitro ADME
T3 sequence (P05177 1-516): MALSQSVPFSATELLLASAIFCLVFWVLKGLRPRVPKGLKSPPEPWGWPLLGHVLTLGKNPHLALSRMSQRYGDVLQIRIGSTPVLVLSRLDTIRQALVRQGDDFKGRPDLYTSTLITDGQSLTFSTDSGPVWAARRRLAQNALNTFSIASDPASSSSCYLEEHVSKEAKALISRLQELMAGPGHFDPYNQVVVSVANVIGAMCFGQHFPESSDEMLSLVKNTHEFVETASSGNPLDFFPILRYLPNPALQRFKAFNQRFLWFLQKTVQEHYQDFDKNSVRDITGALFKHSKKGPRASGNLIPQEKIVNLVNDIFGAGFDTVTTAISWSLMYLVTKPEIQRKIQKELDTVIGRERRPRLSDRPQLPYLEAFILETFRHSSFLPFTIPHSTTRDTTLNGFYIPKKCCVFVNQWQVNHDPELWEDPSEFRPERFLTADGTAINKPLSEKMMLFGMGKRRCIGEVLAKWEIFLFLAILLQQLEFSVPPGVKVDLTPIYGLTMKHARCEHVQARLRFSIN

[5] = tested on: CYP1A2, CYP2B6, CYP2C8, CYP2C9, CYP2D6, CYP2E1, CYP3A4/5; assay: Inhibitory DDI evaluation, cocktail incubation in HLM, all probe reactions; assay type: in vitro ADME; conditions: human, pooled human liver microsomes
CYP2E1 = CYP2E1 (Homo sapiens, UniProt P05181); assay: Inhibitory DDI evaluation, cocktail incubation in HLM; assay type: in vitro ADME
Chain of CYP2E1 (P05181 whole entry): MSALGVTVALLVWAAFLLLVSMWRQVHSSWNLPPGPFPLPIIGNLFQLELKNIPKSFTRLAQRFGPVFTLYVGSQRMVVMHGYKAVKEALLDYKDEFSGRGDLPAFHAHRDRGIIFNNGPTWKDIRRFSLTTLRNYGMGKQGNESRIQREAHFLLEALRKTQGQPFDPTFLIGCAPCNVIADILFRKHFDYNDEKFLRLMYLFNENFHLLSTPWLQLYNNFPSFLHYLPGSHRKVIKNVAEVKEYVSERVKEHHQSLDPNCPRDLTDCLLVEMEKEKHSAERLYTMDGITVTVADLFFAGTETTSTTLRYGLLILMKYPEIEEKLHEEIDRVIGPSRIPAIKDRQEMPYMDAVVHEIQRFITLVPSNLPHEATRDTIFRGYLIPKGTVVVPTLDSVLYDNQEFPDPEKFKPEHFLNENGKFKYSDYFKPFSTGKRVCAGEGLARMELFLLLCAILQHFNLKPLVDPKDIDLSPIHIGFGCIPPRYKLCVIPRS

recombinant human UGT1A6 = assay: Phase II enzyme determination with recombinant human UGT; assay type: in vitro ADME; conditions: rotundic acid 2.5 μM, UGT1A6 0.25 mg protein/mL, 20 min
recombinant human UGT1A1 = assay: as above; assay type: in vitro ADME; conditions: rotundic acid 2.5 μM, UGT1A1 0.25 mg protein/mL, 20 min
recombinant human UGT1A9 = assay: as above; assay type: in vitro ADME; conditions: rotundic acid 2.5 μM, UGT1A9 0.25 mg protein/mL, 20 min
recombinant human UGT2B7 = assay: as above; assay type: in vitro ADME; conditions: rotundic acid 2.5 μM, UGT2B7 0.25 mg protein/mL, 20 min
recombinant human UGT1A4 = assay: as above; assay type: in vitro ADME; conditions: rotundic acid 2.5 μM, UGT1A4 0.25 mg protein/mL, 20 min

stability in the negative control assay [2] | IC50 (CYP2B6) [µM] | IC50 (CYP2D6) [µM] | IC50 (CYP2C9) [µM] | IC50 (CYP2C8 [4]) [µM] | IC50 (CYP1A2) [µM] | IC50 at 20 min [5] [µM] | IC50 (CYP2E1) [µM] | Compound | enzymes catalyzing hydroxylation (CYP3A4/5) | also measured
– | – | – | – | – | – | – | – | O=c1c(O)c(-c2ccc(O)c(O)c2)oc2cc(O)cc(O)c12 [quercetin] | – | generation rate of PE + O (1) (CYP2C8 [1]): approximately 45%; generation rate of PE + O (2) (CYP2C8 [1]): approximately 60%
stable | > 50 | > 50 | > 50 | > 50 | > 50 | > 50 | > 50 | C[C@@H]1CC[C@]2(C(=O)O[C@@H]3O[C@H](CO)[C@@H](O)[C@H](O)[C@H]3O)CC[C@]3(C)C(=CC[C@@H]4[C@@]5(C)CC[C@H](O)[C@@](C)(CO)[C@@H]5CC[C@]43C)[C@@H]2[C@]1(C)O [pedunculoside] | mainly catalyzed by CYP3A4/5 and partly by CYP2C8 | Cmax ([3]; plasma, after oral administration, converted from ng/mL): 154 to 768 nM; elimination half-life ([3]; rats, oral or intravenous): short
stable | > 50 | > 50 | > 50 | > 50 | > 50 | > 50 | > 50 | C[C@@H]1CC[C@]2(C(=O)O)CC[C@]3(C)C(=CC[C@@H]4[C@@]5(C)CC[C@H](O)[C@@](C)(CO)[C@@H]5CC[C@]43C)[C@@H]2[C@]1(C)O [rotundic acid] | almost exclusively catalyzed by CYP3A4/5 | metabolized after incubation for 120 min ([2]; ~1 μM, HLM, UDPGA absent (UDPGA-)): ~ 50%; compound remaining after 120 min ([2]; ~1 μM, HLM, absence of the NADPH regeneration system (NADPH-)): approximately 25%; rotundic acid remained after 120 min ([2]; ~1 μM, HLM, normal group, under regular conditions): less than 10%; generation of glucuronidated rotundic acid (recombinant human UGT1A6): not detected; generation of glucuronidated rotundic acid (recombinant human UGT1A1): not detected; generation of glucuronidated rotundic acid (recombinant human UGT1A9): not detected; generation of glucuronidated rotundic acid (recombinant human UGT2B7): not detected; generation of glucuronidated rotundic acid (recombinant human UGT1A4): detected
